In US20060228405A1, “Phospholipid-based pharmaceutical formulations and methods for producing and using same” (Conforma Therapeutics Corporation, priority 2005, published 2006):

Experiments:
[1] = Solvent stability of low melt form of 17-AAG slurried in H2O:EtOH (90:10); assay type: physicochemical; conditions: crystals slurried in H2O:EtOH (90:10)
Protocol: 17-AAG may be prepared from geldanamycin via reaction with allyamine in dry THF under a nitrogen atmosphere. The crude product may be purified by slurrying in H2O:EtOH (90:10), and the washed crystals obtained have a melting point of 206-212° C. by capillary melting point technique. A second product of 17-AAG can be obtained by dissolving and recrystallizing the crude product from 2-propyl alcohol (isopropanol). This second 17-AAG product has a melting point between 147-153° C. by capillary melting point technique. […] See Examples 1-2 for details of the preparation of the two polymorphic forms of 17-AAG. In addition to the high melt and low melt forms, it is well known that 17-AAG has an amorphous form.
The 17-AAG product from Example 2 was dissolved in 400 mL of H2O:EtOH (90:10) at 25° C. Filltration followed by aging at 45° C. for 8 hr gave […] (68.6 mmol) of 17-AAG as purple crystals (95% yield, >99% pure by HPLC monitored at 254 nm). m.p.=[…]. ^1H NMR and HPLC are consistent with the desired product.

tail vein = assay: Intravenous injection and tolerance, tail vein injection into mice; assay type: in vivo; conditions: phospholipid dispersion
Protocol: (§1) Pharmacokinetics for the solution formulation and the dispersion formulation were very similar. The method of the invention was also used to prepare dispersion formulations with the hydrochloride and phosphate salts of Compound 237. […] Dispersion formulations were also prepared using water soluble and slightly water soluble derivatives of geldanamycin. Specifically, similar dispersions containing DMAG were similarly formulated and well-tolerated upon tail vein injection into mice and rats.

rat tail vein = assay: Intravenous injection and tolerance, rat tail vein; assay type: in vivo; conditions: phospholipid dispersion; rats
Protocol: as §1

[2] = mean +/- SD; cited from earlier work

SMILES: C=CCNC1=C2C[C@@H](C)C[C@H](OC)[C@H](O)[C@@H](C)/C=C(\C)[C@H](OC(N)=O)[C@@H](OC)/C=C\C=C(/C)C(=O)NC(=CC1=O)C2=O [low melt form of 17-AAG, 17-allylamino-17-desmethyl-geldanamycin]
- conversion of low melt form to high melt form [1]: no conversion to the high melt form was observed

SMILES: CO[C@H]1/C=C\C=C(/C)C(=O)NC2=CC(=O)C(NCCN(C)C)=C(C[C@@H](C)C[C@H](OC)[C@H](O)[C@@H](C)/C=C(\C)[C@@H]1OC(N)=O)C2=O [DMAG, 17-N,N-dimethylaminoethylaminogeldanamycin]
- tolerance upon tail vein injection (tail vein): well-tolerated
- tolerance upon tail vein injection (rat tail vein): well-tolerated

SMILES: C=CCNC1=C2C[C@@H](C)C[C@H](OC)[C@H](O)[C@@H](C)/C=C(\C)[C@H](OC(N)=O)[C@@H](OC)/C=C\C=C(/C)C(=O)NC(=CC1=O)C2=O [Compound 17-AAG, 17-allylamino-17-desmethyl-geldanamycin]
- steady-state volume [2]: 86.6+34.6 L/m^2
